One assay relates to ZIKV. The assay is described as follows: ZIKV reporter virus-based antiviral screening on Huh7 cells. The note with it: Huh7 cells infected with recombinant luciferase reporter ZIKV (MOI about 0.1), 48 hrs, luciferase signal; read-out: EC50. Type of assay: cell-based, Zika virus. The procedure, abridged:
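Huh7 cells in 2% FBS assay medium infected at MOI about 0.1 with Renilla or Nano luciferase ZIKV premixed with nine-point compound dilutions, 48 hrs at 37° C. Luciferase signal normalized to DMSO controls as 100%; viability optionally by CellTiter-Glo with Rlu virus.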
For orientation: A reporter such as luciferase makes a cellular process visible.
In general, EC50 refers to the concentration needed to bring the measured effect to its halfway point. Regarding `COC(=O)N[C@H](C(=O)N1C[C@@H](F)C[C@H]1c1nc(Cl)c(-c2cc3c4c(c2)OCc2cc(-c5[nH]c([C@@H]6C[C@H](F)CN6C(=O)[C@@H](NC(=O)OC)C(C)(C)C(F)(F)F)nc5Cl)cc(c2-4)OC3)[nH]1)C(C)(C)C(F)(F)F` [Compound 52, dimethyl ((2S,2′S)-((3S,3′S,5S,5′S)-((5,10-dihydrochromeno[5,4,3-cde]chromene-2,7-diyl)bis(4-chloro-1H-imidazole-5,2-diyl))bis(3-fluoropyrrolidine-5,1-diyl))bis(4,4,4-trifluoro-3,3-dimethyl-1-oxobutane-l,2-diyl))dicarbamate], the EC50 is 103 nM.

The assay is the same for the next values; noted with them: Zika virus, Huh-7, 48 h, Huh7 cells infected with recombinant luciferase reporter ZIKV (MOI about 0.1), luciferase signal.
As for `COC[C@H]1C[C@@H](c2nc(Cl)c(-c3cc4c5c(c3)OCc3cc(-c6[nH]c([C@@H]7C[C@H](COC)CN7C(=O)[C@@H](NC(=O)OC)C(C)C)nc6Cl)cc(c3-5)OC4)[nH]2)N(C(=O)[C@@H](NC(=O)OC)C(C)C)C1` [Compound 45, dimethyl ((2S,2′S)-((3S,3′S,5S,5′S)-((5,10-dihydrochromeno[5,4,3-cde]chromene-2,7-diyl)bis(4-chloro-1H-imidazole-5,2-diyl))bis(3-(methoxymethyl)pyrrolidine-5,1-diyl))bis(3-methyl-1-oxobutane-1,2-diyl))dicarbamate], the EC50 was determined as 19.3 nM.

`COC(=O)N[C@H](C(=O)N1[C@@H]2C[C@@H]2C[C@H]1c1nc(Cl)c(-c2cc3c4c(c2)OCc2cc(-c5[nH]c([C@@H]6C[C@H]7C[C@H]7N6C(=O)[C@@H](NC(=O)OC)C(C)C)nc5Cl)cc(c2-4)OC3)[nH]1)C(C)C` [Compound 46, dimethyl ((2S,2′S)-((1R,1′R,3S,3′S,5R,5′R)-((5,10-dihydrochromeno[5,4,3-cde]chromene-2,7-diyl)bis(4-chloro-1H-imidazole-5,2-diyl))bis(2-azabicyclo[3.1.0]hexane-3,2-diyl))bis(3-methyl-1-oxobutane-1,2-diyl))dicarbamate]: the EC50 worked out at 5 nM.

For the compound `COC(=O)N[C@H](C(=O)N1C[C@@H](C)C[C@H]1c1nc(Cl)c(-c2cc3c4c(c2)OCc2cc(-c5[nH]c([C@@H]6C[C@H](C)CN6C(=O)[C@@H](NC(=O)OC)[C@@H](C)OC)nc5Cl)cc(c2-4)OC3)[nH]1)[C@@H](C)OC` [Compound 47, dimethyl ((2S,2′S,3R,3′R)-((3S,3′S,5S,5′S)-((5,10-dihydrochromeno[5,4,3-cde]chromene-2,7-diyl)bis(4-chloro-1H-imidazole-5,2-diyl))bis(3-methylpyrrolidine-5,1-diyl))bis(3-methoxy-1-oxobutane-1,2-diyl))dicarbamate], the EC50 is 16.9 nM.

Take `COC(=O)N[C@H](C(=O)N1C[C@@H](C)C[C@H]1c1nc(Cl)c(-c2cc3c4c(c2)OCc2cc(-c5[nH]c([C@@H]6C[C@H](C)CN6C(=O)[C@@H](NC(=O)OC)C(C)C)nc5Cl)cc(c2-4)OC3)[nH]1)C(C)C` [Compound 48, dimethyl ((2S,2′S)-((3S,3′S,5S,5′S)-((5,10-dihydrochromeno[5,4,3-cde]chromene-2,7-diyl)bis(4-chloro-1H-imidazole-5,2-diyl))bis(3-methylpyrrolidine-5,1-diyl))bis(3-methyl-1-oxobutane-1,2-diyl))dicarbamate]: the EC50 was determined as 4.6 nM.

On to `COC[C@H]1CC[C@@H](c2nc(Cl)c(-c3cc4c5c(c3)OCc3cc(-c6[nH]c([C@@H]7CC[C@H](COC)N7C(=O)[C@@H](NC(=O)OC)C(C)C)nc6Cl)cc(c3-5)OC4)[nH]2)N1C(=O)[C@@H](NC(=O)OC)C(C)C` [Compound 49, dimethyl ((2S,2′S)-((2R,2′R,5S,5′S)-((5,10-dihydrochromeno[5,4,3-cde]chromene-2,7-diyl)bis(4-chloro-1H-imidazole-5,2-diyl))bis(2-(methoxymethyl)pyrrolidine-5,1-diyl))bis(3-methyl-1-oxobutane-1,2-diyl))dicarbamate], for which the EC50 amounted to 1.9 nM.

In the case of `COC(=O)N[C@H](C(=O)N1C[C@@H](F)C[C@H]1c1nc(Cl)c(-c2cc3c4c(c2)OCc2cc(-c5[nH]c([C@@H]6C[C@H](F)CN6C(=O)[C@@H](NC(=O)OC)C(C)C)nc5Cl)cc(c2-4)OC3)[nH]1)C(C)C` [Compound 50, dimethyl ((2S,2′S)-((3S,3′S,5S,5′S)-((5,10-dihydrochromeno[5,4,3-cde]chromene-2,7-diyl)bis(4-chloro-1H-imidazole-5,2-diyl))bis(3-fluoropyrrolidine-5,1-diyl))bis(3-methyl-1-oxobutane-1,2-diyl))dicarbamate], the EC50 was 240 nM.

As to `CC[C@H](C)[C@H](NC(=O)OC)C(=O)N1C[C@@H](F)C[C@H]1c1nc(Cl)c(-c2cc3c4c(c2)OCc2cc(-c5[nH]c([C@@H]6C[C@H](F)CN6C(=O)[C@@H](NC(=O)OC)[C@@H](C)CC)nc5Cl)cc(c2-4)OC3)[nH]1` [Compound 51, dimethyl ((2S,2′S,3S,3′S)-((3S,3′S,5S,5′S)-((5,10-dihydrochromeno[5,4,3-cde]chromene-2,7-diyl)bis(4-chloro-1H-imidazole-5,2-diyl))bis(3-fluoropyrrolidine-5,1-diyl))bis(3-methyl-1-oxopentane-1,2-diyl))dicarbamate], the EC50 is 98.8 nM.

`COC(=O)N[C@H](C(=O)N1C[C@H](F)C[C@H]1c1nc(Cl)c(-c2cc3c4c(c2)OCc2cc(-c5[nH]c([C@@H]6C[C@@H](F)CN6C(=O)[C@@H](NC(=O)OC)C(C)C)nc5Cl)cc(c2-4)OC3)[nH]1)C(C)C` [Compound 53, dimethyl ((2S,2′S)-((3R,3′R,5S,5′S)-((5,10-dihydrochromeno[5,4,3-cde]chromene-2,7-diyl)bis(4-chloro-1H-imidazole-5,2-diyl))bis(3-fluoropyrrolidine-5,1-diyl))bis(3-methyl-1-oxobutane-1,2-diyl))dicarbamate]: the EC50 stood at 7.3 nM.

For the compound `CC[C@H](C)[C@H](NC(=O)OC)C(=O)N1C[C@H](F)C[C@H]1c1nc(Cl)c(-c2cc3c4c(c2)OCc2cc(-c5[nH]c([C@@H]6C[C@@H](F)CN6C(=O)[C@@H](NC(=O)OC)[C@@H](C)CC)nc5Cl)cc(c2-4)OC3)[nH]1` [Compound 54, dimethyl ((2S,2′S,3S,3′S)-((3R,3′R,5S,5′S)-((5,10-dihydrochromeno[5,4,3-cde]chromene-2,7-diyl)bis(4-chloro-1H-imidazole-5,2-diyl))bis(3-fluoropyrrolidine-5,1-diyl))bis(3-methyl-1-oxopentane-1,2-diyl))dicarbamate], the EC50 was 8 nM.

On to `COC(=O)N[C@H](C(=O)N1C[C@H](F)C[C@H]1c1nc(Cl)c(-c2cc3c4c(c2)OCc2cc(-c5[nH]c([C@@H]6C[C@@H](F)CN6C(=O)[C@@H](NC(=O)OC)C(C)(C)C(F)(F)F)nc5Cl)cc(c2-4)OC3)[nH]1)C(C)(C)C(F)(F)F` [Compound 55, dimethyl ((2S,2′S)-((3R,3′R,5S,5′S)-((5,10-dihydrochromeno[5,4,3-cde]chromene-2,7-diyl)bis(4-chloro-1H-imidazole-5,2-diyl))bis(3-fluoropyrrolidine-5,1-diyl))bis(4,4,4-trifluoro-3,3-dimethyl-1-oxobutane-1,2-diyl))dicarbamate], for which the EC50 was 4.7 nM.

`COC(=O)N[C@H](C(=O)N1CC(F)(F)C[C@H]1c1nc(Cl)c(-c2cc3c4c(c2)OCc2cc(-c5[nH]c([C@@H]6CC(F)(F)CN6C(=O)[C@@H](NC(=O)OC)C(C)C)nc5Cl)cc(c2-4)OC3)[nH]1)C(C)C` [Compound 56, dimethyl ((2S,2′S)-((5S,5′S)-((5,10-dihydrochromeno[5,4,3-cde]chromene-2,7-diyl)bis(4-chloro-1H-imidazole-5,2-diyl))bis(3,3-difluoropyrrolidine-5,1-diyl))bis(3-methyl-1-oxobutane-1,2-diyl))dicarbamate]: the EC50 was 3.8 nM.

The values are drawn from US12497408B2, “Tetracyclic compounds and methods for the treatment of Zika virus infection” (priority 2021, dated 2025).
